US20050282824A1, “Substituted pyrimidines as inhibitors of bacterial type III protein secretion systems” (priority 2004, published 2005)

What was measured:
Assay type in all cases: cell-based
[1] = tested on: SPI1 type III protein secretion of SipB by S. enterica; assay: Secondary assay: Type III-dependent protein secretion of the SipB polypeptide by S. enterica; settings: Salmonella enterica, read-out: SipB IC50(uM)
Protocol: Secondary assay: Type III-dependent protein secretion of the SipB polypeptide by S. enterica. The SipB protein of S. enterica is another effector of the SPI1 type III protein secretion system from S. enterica. In this cell-based procedure, the Type III-dependent secretion of SipB from the bacterial cytoplasm to the extracellular medium was measured through its reactivity with a cognate mouse monoclonal.
Salmonella enterica cells growing either in the presence or in the absence of inhibitors are induced for the production of SipB. Following an established period of growth the cells are sedimented and the amount of SipB present in the supernatant is quantified with a scanning imager following application of immunoblot techniques. Detection may employ an anti-SipB mouse monoclonal antibody (e.g., obtained from Jorge Galan, SUNY at Stony Brook, N.Y.) followed by treatment with commercially available sheep anti-mouse polyclonal antibody conjugated with horseradish peroxidase. Thereafter the membrane is treated with a peroxidase chemiluminescent substrate and exposed to film for an appropriate exposure time. Inhibition may be measured relative to untreated controls.

[2] = tested on: SPI1 type III protein secretion of SopE'-'Bla by Salmonella enterica; assay: Primary assay: Type III protein secretion of the chimeric SopE'-'Bla polypeptide by Salmonella enterica; settings: read-out: SopE IC50(uM)
Text: Primary assay: Type III protein secretion of the chimeric SopE′-′Bla polypeptide by Salmonella enterica. This procedure is a cell-based assay that measures the type III-dependent secretion by Salmonella enterica of a plasmid-encoded chimeric polypeptide whose synthesis can be regulated, and which is endowed with an enzymatic activity that can be monitored […] by hydrolysis of a substrate that is unable to penetrate into the bacterial cytoplasm within the time constraints of the reaction. Thus, the colorimetric reaction is not influenced by SopE′-′Bla polypeptide in the bacterial cytoplasm. Instead, it effectively measures the amount of polypeptide that has been secreted from the S. enterica cytoplasm to the extracellular medium via type III system protein secretion.
The SopE′-′Bla recombinant polypeptide consists of two functionally distinct domains spliced together. The N-terminus domain is encoded by a polynucleotide region specifying the signal for type III secretion of the SopE polypeptide of S. enterica, an effector of the SPI1 type III protein secretion system. The C-terminus domain of SopE′-′Bla consists of a 263 amino acid peptide sequence that corresponds to the TEM-1 β-lactamase expressed by plasmid pBR322 but without its N-terminal signal sequence. The TEM-1 β-lactamase part of the SopE′-′Bla chimeric polypeptide is used as a reporter enzyme. It is capable of hydrolyzing nitrocefin resulting in a product whose accumulation can be monitored by colorimetric detection. The secretion of the SopE′-′Bla chimeric polypeptide from the cytoplasm to the extracellular medium is dependent on type III protein secretion.
For this procedure, cells grown under conditions known to favor a functional SPI1 secretion system are induced for expression of the SopE′-′Bla protein and grown either in the presence or in the absence of putative inhibitors for determined time. Nitrocefin is then added to the various cultures and its hydrolysis are used for quantitation. An inhibitor of Type III protein secretion is generally a compound that reduces the signal of the enzymatic reaction by decreasing the amount of SopE′-′Bla secreted into the extracellular medium.

[3] = tested on: Type III protein secretion of ExoU by P. aeruginosa PA103; assay: Tertiary assay: Type III-dependent secretion of ExoU by P. aeruginosa PA103; settings: Pseudomonas aeruginosa, read-out: ExoU IC50(uM)
Text: Tertiary assay: inhibition of Type III protein secretion of effectors from a Pseudomonas aeruginosa system. Type III protein secretion is used by P. aeruginosa to secrete several essential virulence determinants. One effector of the type III protein secretion system of P. aeruginosa PA 103 is the virulence determinants ExoU.
The amount of Type III-dependent secretion of ExoU by P. aeruginosa PA103 can be determined in a cell-based assay by quantification of the 73.9 kDa ExoU protein secreted into the extracellular medium. Such quantitation can be achieved by growing strain PA 103 in a deferrated medium in the presence of nitrilotriacetic acid (an inducer of Type III protein secretion in P. aeruginosa) and either in the presence or absence of putative inhibitors. After a prolonged growth period, the cells are sedimented and the supernatants concentrated by ammonium sulfate precipitation. The proteins in the resuspended pellets are separated by electrophoresis on SDS-polyacrylamide gels. After staining gels with Colloidal Blue™, the 73.9 kDa ExoU band is quantitated by scanning through an imager. The effects of inhibitors on the intensity of the ExoU band may be measured relative to that of untreated controls.

SMILES	IC50 [1]	IC50 [2]	IC50 [3]
O=C(N[C@@H](COCc1ccccc1)C(=O)O)c1cc(N2CCN(c3nccc(C(F)(F)F)n3)CC2)nc(-c2ccoc2)n1 [Compound 60, (S)-3-Benzyloxy-2-({2-furan-3-yl-6-[4-(4-trifluoromethylpyrimidin-2-yl)piperazin-1yl]-pyrimidine-4-carbonyl}amino)propionic acid]	15.6 µM	16.4 µM	> 100 µM
C=C(NC(=O)c1cc(N2CCN(c3nccc(C(F)(F)F)n3)CC2)nc(-c2ccoc2)n1)C(=O)O [Compound 63, 2-({2-Furan-3-yl-6-[4-(4-trifluoromethylpyrimidin-2-yl)piperazin-1-yl]pyrimidine-4-carbonyl}amino)acrylic acid]	> 100 µM	21.4 µM	–
N#Cc1ccc(-c2nc(C(=O)N[C@H](Cc3ccc(Cl)cc3)C(=O)O)cc(N3CCc4ccccc4C3)n2)cc1 [Compound 10, (R)-3-(4-Chlorophenyl)-2-{[2-(4-cyanophenyl)-6-(3,4-dihydro-1H-isoquinolin-2-yl)pyrimidine-4-carbonyl]amino}propionic acid]	> 100 µM	4.3 µM	–
O=C(N[C@@H](CSCc1ccccc1)C(=O)O)c1cc(N2CCN(c3nccc(C(F)(F)F)n3)CC2)nc(-c2ccc(F)cc2)n1 [Compound 55, (R)-3-Benzylsulfanyl-2-({2-(4-fluorophenyl)-6-[4-(4-trifluoromethylpyrimidin-2-yl)-piperazin-1-yl]pyrimidine-4-carbonyl}amino)propionic acid]	20.5 µM	2.4 µM	–
O=C(N[C@@H](COCc1ccccc1)C(=O)O)c1cc(N2CCN(c3nccc(C(F)(F)F)n3)CC2)nc(-c2ccc(F)cc2)n1 [Compound 54, (S)-3-Benzyloxy-2-({2-(4-fluorophenyl)-6-[4-(4-trifluoromethylpyrimidin-2-yl)-piperazin-1-yl]pyrimidine-4-carbonyl}amino)propionic acid]	2.7 µM	1.3 µM	–
CC1CCN(c2nc(C(=O)N[C@@H](CSCc3ccccc3)C(=O)O)cc(N3CCN(c4nccc(C(F)(F)F)n4)CC3)n2)CC1 [Compound 46, (R)-3-Benzylsulfanyl-2-({2-(4-methylpiperidin-1-yl)-6-[4-(4-trifluoromethyl-pyrimidin-2-yl)piperazin-1-yl]pyrimidine-4-carbonyl}amino)propionic acid]	10.6 µM	3.4 µM	–
CC1CCN(c2cc(C(=O)N[C@@H](CSCc3ccccc3)C(=O)O)nc(-c3ccc(Oc4ccccc4)cc3)n2)CC1 [Compound 37, (R)-3-Benzylsulfanyl-2-{[6-(4-methylpiperidin-1-yl)-2-(4-phenoxyphenyl)-pyrimidine-4-carbonyl]amino}propionic acid]	> 100 µM	1.7 µM	–
O=C(N[C@@H](CSCc1ccccc1)C(=O)O)c1cc(N2CCN(c3ccccc3)CC2)nc(-c2ccc(Cl)c(Cl)c2)n1 [Compound 20, (R)-3-Benzylsulfanyl-2-{[2-(3,4-dichlorophenyl)-6-(4-phenyl-piperazin-1-yl)-pyrimidine-4-carbonyl]amino}propionic acid]	> 100 µM	2.1 µM	–
O=C(N[C@@H](COCc1ccccc1)C(=O)O)c1cc(N2CCCCC2)nc(N2CCC(c3ccccc3)CC2)n1 [Compound 28, (S)-3-Benzyloxy-2-{[2-(4-phenylpiperidin-1-yl)-6-piperidin-1-yl-pyrimidine-4-carbonyl]amino}propionic acid]	18.5 µM	5.2 µM	–
O=C(N[C@H](Cc1ccc(Cl)cc1)C(=O)O)c1cc(N2CCc3ccccc3C2)nc(-c2ccc(C(F)(F)F)cc2)n1 [Compound 8, (R)-3-(4-Chlorophenyl)-2-{[6-(3,4-dihydro-1H-isoquinolin-2-yl)-2-(4-trifluoromethylphenyl)pyrimidine-4-carbonyl]amino}propionic acid]	> 100 µM	2 µM	–
O=C(N[C@@H](COCc1ccccc1)C(=O)O)c1cc(N2CCN(c3nccc(C(F)(F)F)n3)CC2)nc(-c2cccs2)n1 [Compound 57, (S)-3-Benzyloxy-2-({2-thiophen-2-yl-6-[4-(4-trifluoromethylpyrimidin-2-yl)-piperazin-1-yl]pyrimidine-4-carbonyl}amino)propionic acid]	13.3 µM	28.7 µM	–
O=C(NC(Cc1ccc(Cl)cc1)C(=O)O)c1cc(N2CCN(c3nccc(C(F)(F)F)n3)CC2)nc(-c2cccs2)n1 (stereo not shown) [Compound 59, 3-(4-Chlorophenyl)-2-({2-thiophen-2-yl-6-[4-(4-trifluoromethylpyrimidin-2-yl)-piperazin-1-yl]pyrimidine-4-carbonyl}amino)propionic acid]	17.1 µM	1.8 µM	–
O=C(N[C@@H](CSCc1ccccc1)C(=O)O)c1cc(N2CCN(c3nccc(C(F)(F)F)n3)CC2)nc(-c2cccs2)n1 [Compound 58, (R)-3-Benzylsulfanyl-2-({2-thiophen-2-yl-6-[4-(4-trifluoromethylpyrimidin-2-yl)-piperazin-1-yl]pyrimidine-4-carbonyl}amino)propionic acid]	10.6 µM	4.5 µM	–
CN(C)c1ccc(-c2nc(C(=O)N[C@@H](CSCc3ccccc3)C(=O)O)cc(N3CCN(c4nccc(C(F)(F)F)n4)CC3)n2)cc1 [Compound 50, (R)-3-Benzylsulfanyl-2-({2-(4-dimethylaminophenyl)-6-[4-(4-trifluoromethyl-pyrimidin-2-yl)piperazin-1-yl]pyrimidine-4-carbonyl}amino)propionic acid]	> 100 µM	20.1 µM	–
CN1CCN(c2nc(C(=O)N[C@@H](CSCc3ccccc3)C(=O)O)cc(N3CCN(c4nccc(C(F)(F)F)n4)CC3)n2)CC1 [Compound 44, (R)-3-Benzylsulfanyl-2-({2-(4-methyl-piperazin-1-yl)-6-[4-(4-trifluoromethyl-pyrimidin-2-yl)piperazin-1-yl]pyrimidine-4-carbonyl}amino)propionic acid]	> 100 µM	85 µM	–
O=C(N[C@H](Cc1ccc(Cl)cc1)C(=O)O)c1cc(N2CCc3ccccc3C2)nc(-c2cccc(C(F)(F)F)c2)n1 [Compound 7, (R)-3-(4-Chlorophenyl)-2-{[6-(3,4-dihydro-1H-isoquinolin-2-yl)-2-(3-trifluoromethylphenyl)pyrimidine-4-carbonyl]amino}propionic acid]	> 100 µM	1.2 µM	–
O=C(NC(Cc1ccc(Cl)cc1)C(=O)O)c1cc(N2CCN(c3nccc(C(F)(F)F)n3)CC2)nc(-c2ccoc2)n1 (stereo not shown) [Compound 62, 3-(4-Chlorophenyl)-2-({2-furan-3-yl-6-[4-(4-trifluoromethylpyrimidin-2-yl)-piperazin-1-yl]pyrimidine-4-carbonyl}amino)propionic acid]	12.6 µM	5.4 µM	–
O=C(N[C@@H](CSCc1ccccc1)C(=O)O)c1cc(N2CCN(c3nccc(C(F)(F)F)n3)CC2)nc(-c2ccc([N+](=O)[O-])cc2)n1 [Compound 52, (R)-3-Benzylsulfanyl-2-({2-(4-nitrophenyl)-6-[4-(4-trifluoromethylpyrimidin-2-yl)-piperazin-1-yl]pyrimidine-4-carbonyl}amino)propionic acid]	15 µM	10.4 µM	–
